Patent US20240335500A1, “CONTROLLING PRO-INFLAMMATORY MACROPHAGE PHENOTYPE THROUGH BIOFUNCTIONAL HYDROGEL DESIGN” (UNIVERSITY OF FLORIDA RESEARCH FOUNDATION, INCORPORATED, priority 2021, published 2024)

How the values were obtained:
bone marrow cells = bone marrow cells encapsulated in type I collagen matrix gels, Mizuno et al.; cited from earlier work
[1] = test system: TNFα, IL-6, iNOS gene expression; experiment: RT-PCR of pro-inflammatory gene expression (TNFα, IL-6, iNOS); type: cell-based; settings: FIG. 7
Text: The results validate the inflammation inhibiting properties of DGEA by looking at pro-inflammatory gene expressions. The genes assessed include TNFα (a); IL-6 (b); and iNOS (c).

Raw 264.7 macrophages [2] = experiment: Soluble delivery of DGEA to macrophages encapsulated in 3D control PEG hydrogels, iNOS/DAPI immunostaining; type: cell-based, mouse; settings: 3D control hydrogel (3.5 mM PEG-RGDS, 5% PEG-PQ-PEG), 5 mM soluble DGEA in M1 media, 72 hrs; non-significant (p>0.05)
Description: Raw 264.7 macrophages were encapsulated within the hydrogel. These quiescent M0 macrophages were allowed to equilibrate in the incubator for 24 hrs, after which M1 media was added to stimulate them towards the pro-inflammatory phenotype. At this time, 5 mM DGEA was also dissolved into the media and the samples were incubated for another 72 hrs. The samples were then fixed, stained, imaged, and analyzed. The immunofluorescent images represent DAPI stained cells and iNOS stained cells (inset (b) in FIG. 2). The 3D hydrogels were imaged using a Keyence BZ-X800 microscope and the images represent 2D slices of an entire 3D Z-stack. […] The data were statistically non-significant (p>0.05). […]
(§1) Cells were stimulated with M1 media 24 hrs post-seeding and post-encapsulation. In all studies, the effects of DGEA on the cells were assessed 72 hrs post-stimulation with M1 media by immunocytochemistry (ICC). […]
Images were quantified based on the number of iNOS^+ cells, normalized to DAPI^+ cells for each condition. Images were analyzed using the “automated cell counting of single color image” feature on ImageJ (NIH) software after a randomized, unbiased selection of images. All images were turned to 8-bit grayscale and threshold to highlight all the cells to be counted. […]

Raw 264.7 macrophages [3] = experiment: iNOS and CD206 expression in M0, M1 and M2 raw 264.7 macrophages encapsulated in control and PEG-DGEA hydrogels; type: cell-based, mouse
platelets = settings: Luzak et al.; cited from earlier work
α2β1 integrin = target: T1, α2β1 integrin (Homo sapiens, UniProt P05556+P17301); settings: DGEA-coated plates, Cha et al.; cited from earlier work
T1 construct: Integrin α2β1 appears to play a pivotal role in macrophage polarization by affecting downstream signaling pathways

Raw 264.7 macrophages [4] = experiment: Soluble delivery of DGEA to 2D cultures of M1-stimulated macrophages, iNOS/DAPI immunostaining; type: cell-based, mouse; settings: 2D culture, M1 media (100 ng/mL LPS, 10 ng/mL IFNγ), 5 mM soluble DGEA, 72 hrs; without DGEA 0.5±0.1; p<0.05
Description: To establish interactions between DGEA and M1 macrophages, a 2D study was conducted with soluble delivery of DGEA to the media culture. […] 5 mM DGEA was dissolved in the media to assess the effects of DGEA on macrophage activation (S. Y. Yoo, M. Kobayashi, P. P. Lee, and S. W. Lee, “Early osteogenic differentiation of mouse preosteoblasts induced by collagen-derived DGEA-peptide on nanofibrous phage tissue matrices,” Biomacromolecules, vol. 12, no. 4, pp. 987-996, April 2011). After stimulation, the cells were stained for 4′,6-diamidino-2-phenylindole (DAPI) and iNOS (inset (b) of FIG. 1). The addition of 5 mM DGEA in the media reduced the number of iNOS^+ cells, as represented in insets (b) and (c) in FIG. 1. The iNOS^+ cell count was normalized to the number of DAPI^+ cells for each image chosen to be analyzed. […] Polarized iNOS^+ macrophage cells with soluble DGEA were dramatically lower than iNOS^+ macrophage cells without any presence of DGEA. […] ECM-derived peptides have been investigated in cell function. For example, the interaction between collagen and α2β1 integrin is important for the osteoblastic differentiation of bone marrow cells. […]
as §1

ovarian carcinoma cells = settings: Fishman et al.; cited from earlier work

T1 sequence (P17301 30-1181): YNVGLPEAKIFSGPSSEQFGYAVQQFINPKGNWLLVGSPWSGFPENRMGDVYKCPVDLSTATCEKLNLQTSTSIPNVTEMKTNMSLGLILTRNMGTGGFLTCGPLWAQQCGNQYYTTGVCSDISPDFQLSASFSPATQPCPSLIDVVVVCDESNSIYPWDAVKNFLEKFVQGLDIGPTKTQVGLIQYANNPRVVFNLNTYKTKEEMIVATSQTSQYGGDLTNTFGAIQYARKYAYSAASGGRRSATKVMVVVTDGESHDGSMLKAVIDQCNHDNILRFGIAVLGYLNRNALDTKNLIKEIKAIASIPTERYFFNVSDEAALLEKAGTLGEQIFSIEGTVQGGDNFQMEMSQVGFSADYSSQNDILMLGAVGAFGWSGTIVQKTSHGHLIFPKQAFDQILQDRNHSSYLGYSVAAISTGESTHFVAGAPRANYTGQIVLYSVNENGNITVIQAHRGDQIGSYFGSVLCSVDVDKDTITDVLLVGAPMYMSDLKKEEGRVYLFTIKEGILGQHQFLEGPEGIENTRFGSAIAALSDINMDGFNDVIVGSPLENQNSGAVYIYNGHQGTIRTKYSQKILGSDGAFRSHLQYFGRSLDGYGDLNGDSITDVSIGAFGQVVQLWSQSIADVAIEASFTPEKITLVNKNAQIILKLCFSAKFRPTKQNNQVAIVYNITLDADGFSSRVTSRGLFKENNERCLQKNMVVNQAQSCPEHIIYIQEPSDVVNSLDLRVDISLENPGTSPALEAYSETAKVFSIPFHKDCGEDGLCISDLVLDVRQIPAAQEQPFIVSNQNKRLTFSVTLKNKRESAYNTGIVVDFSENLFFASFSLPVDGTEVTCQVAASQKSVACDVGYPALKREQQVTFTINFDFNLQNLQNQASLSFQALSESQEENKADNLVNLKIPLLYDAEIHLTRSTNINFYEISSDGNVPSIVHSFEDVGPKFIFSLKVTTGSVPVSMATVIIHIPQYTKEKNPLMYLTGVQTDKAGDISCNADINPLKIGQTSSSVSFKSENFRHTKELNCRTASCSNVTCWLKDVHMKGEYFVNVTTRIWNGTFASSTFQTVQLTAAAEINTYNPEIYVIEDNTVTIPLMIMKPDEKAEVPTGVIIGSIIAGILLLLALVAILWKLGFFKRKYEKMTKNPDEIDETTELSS
T1 sequence (P05556 21-798): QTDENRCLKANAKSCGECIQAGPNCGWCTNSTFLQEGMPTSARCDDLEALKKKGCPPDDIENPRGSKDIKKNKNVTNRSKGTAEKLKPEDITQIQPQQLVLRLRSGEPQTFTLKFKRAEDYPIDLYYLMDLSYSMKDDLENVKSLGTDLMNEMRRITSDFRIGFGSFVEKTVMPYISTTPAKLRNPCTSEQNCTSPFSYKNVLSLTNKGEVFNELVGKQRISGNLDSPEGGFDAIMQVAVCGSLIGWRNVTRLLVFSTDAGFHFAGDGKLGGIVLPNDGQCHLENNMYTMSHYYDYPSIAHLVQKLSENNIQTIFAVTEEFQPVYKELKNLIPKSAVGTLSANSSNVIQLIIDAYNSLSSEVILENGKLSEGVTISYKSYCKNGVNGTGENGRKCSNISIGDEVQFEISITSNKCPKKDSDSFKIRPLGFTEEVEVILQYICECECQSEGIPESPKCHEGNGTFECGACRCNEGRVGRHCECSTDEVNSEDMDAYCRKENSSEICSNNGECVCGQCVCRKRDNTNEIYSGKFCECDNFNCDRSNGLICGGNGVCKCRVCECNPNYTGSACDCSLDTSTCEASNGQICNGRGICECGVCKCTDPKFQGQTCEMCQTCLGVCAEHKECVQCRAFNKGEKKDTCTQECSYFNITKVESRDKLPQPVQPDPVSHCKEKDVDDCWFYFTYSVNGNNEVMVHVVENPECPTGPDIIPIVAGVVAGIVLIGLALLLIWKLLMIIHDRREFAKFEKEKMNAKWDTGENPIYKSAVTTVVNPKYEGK

Substance: Asp-Gly-Glu-Ala (DGEA; DGEA peptide sequence)
- expression of osteoblastic phenotype (bone marrow cells): inhibited the expression of osteoblastic phenotype
- expression of pro-inflammatory mediators (TNFα, IL-6, iNOS) by RT-PCR [1]: significantly reduces expression
- number of iNOS+ cells (normalized to DAPI+ cells) (Raw 264.7 macrophages [2]): lower than the number of iNOS^+ cells without any DGEA
- iNOS expression (Raw 264.7 macrophages [3]; M0, M1 and M2 macrophages encapsulated in PEG-DGEA vs control hydrogels, FIG. 8): reduced iNOS expression
- CD206 expression (Raw 264.7 macrophages [3]; M1 or M2 macrophage phenotypes in PEG-DGEA hydrogels, FIG. 9): did not appear to have any significant effects
- platelet adhesion (platelets): significant inhibition in platelet adhesion
- expression of CD206 (M2 marker) (α2β1 integrin): higher expression of CD206
- iNOS+ M1 activated macrophages as fraction of the total DAPI+ cells (Raw 264.7 macrophages [4]): 0.1±0.1
- adhesion of ovarian carcinoma cells to collagen (ovarian carcinoma cells): block adhesion
